In the test the test system is T. cruzi-infected H9C2 cardiomyocytes, high-content imaging. Briefly: anti-T. cruzi activity in infected cardiomyocytes – imaging, H9C2 host cardiomyocytes, host toxicity (AID 1159565).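 Also: infected cells incubated 72 h after plating.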
Setting [1] is: measured here: H9C2 host cell toxicity.
Setting [2] is: measured here: amastigotes per cell.

SMILES strings stand for the structures. Calls of active or inactive are those of the source. No rule for the calls is given here.

For the molecule `CCn1c(-c2nonc2N)nc2c([C@@H](C)O)ncc(O[C@H](CN)c3ccccc3)c21`, the IC50 is 10 µM. Further, the IC50 under setting [1] was found to be 0.63 µM. Under setting [2], this molecule gave an IC50 of 7.9 µM.

`CNc1nc(C)nc(N2CCc3cc(C(=O)NCc4ccc(-c5nccn5C)cc4Cl)ccc32)n1`: the 50% inhibitory concentration (IC50) was 13 µM. Under setting [1], this molecule displayed an IC50 of 50 µM. The molecule further had an IC50 under setting [2] of 5 µM.

On to `Cc1cccc(N2CCCN(Cc3c[nH]c4ccccc34)CC2)n1`, for which the half-inhibitory concentration (IC50) is 0.4 µM. The half-maximal inhibitory concentration (IC50) under setting [1] turned out to be 2.5 µM. Under setting [2], this molecule returned an IC50 of 0.32 µM.

Turning to `Cn1c(CC(=O)NNC(=O)c2ccc3ccccc3n2)nc2ccccc21`, the IC50 is 5 µM. This molecule gave an IC50 under setting [1] of over 50 µM. In addition, the half-maximal inhibitory concentration (IC50) under setting [2] was found to be 6.3 µM.

For `NS(=O)(=O)c1ccc(Nc2ncc3cccc(OC4CCNCC4)c3n2)cc1`, the 50% inhibitory concentration (IC50) is 0.05 µM. Moreover, the IC50 under setting [1] worked out at 0.63 µM. The same molecule gave a 50% inhibitory concentration (IC50) under setting [2] of 0.02 µM.

On to `Cc1c(CNC(=O)c2ccc(Cn3cc(Cl)c([N+](=O)[O-])n3)cc2)cnn1C`, for which the IC50 is 1.6 µM. The molecule further had an IC50 under setting [1] of over 50 µM. In addition, the IC50 under setting [2] stood at 0.79 µM.

`CC(C)(C)Nc1nc(-c2ccccn2)nc2ccccc12`: the half-maximal inhibitory concentration (IC50) is 2 µM. Under setting [1], this molecule showed an IC50 of 0.32 µM. This molecule also showed an IC50 under setting [2] of 1.3 µM.

For `Oc1cccnc1-c1n[nH]c(Cc2ccccc2)n1`, the IC50 was 7.9 µM. The molecule further registered a 50% inhibitory concentration (IC50) under setting [1] of 16 µM. Besides, the 50% inhibitory concentration (IC50) under setting [2] amounted to 6.3 µM.

In the case of `COc1ccc(C)cc1-c1csc(NC(=O)C(C)n2ccnc2)n1` (centres undefined), the IC50 was 0.1 µM. This molecule also showed an IC50 under setting [1] of over 50 µM. Besides, the half-inhibitory concentration (IC50) under setting [2] worked out at 0.1 µM.

For the molecule `CCc1cc(C(=O)Nc2nccn2-c2ccccc2)cs1`, the 50% inhibitory concentration (IC50) was 5 µM. The molecule further gave a 50% inhibitory concentration (IC50) under setting [1] of 20 µM. Besides, the IC50 under setting [2] came out at 3.2 µM.

As for `Cn1ccnc1-c1nc(NCc2ccccc2Cl)cc(C2CC2)n1`, the concentration for half-maximal inhibition (IC50) is 0.79 µM. In addition, the IC50 under setting [1] amounted to 0.63 µM. This molecule also had an IC50 under setting [2] of 0.79 µM.

For the molecule `COc1ccc(-c2cc(C)no2)cc1S(=O)(=O)Nc1ccc(F)c(Cl)c1`, the IC50 is 3.2 µM. The molecule further yielded an IC50 under setting [1] of 50 µM. The IC50 under setting [2] was determined as 4 µM.

`COc1ccc(C(=O)Nc2cc(C(F)(F)F)ccc2N2CCOCC2)c(OC)c1`: the 50% inhibitory concentration (IC50) is 0.79 µM. Under setting [1], the concentration for half-maximal inhibition (IC50) was over 50 µM. Further, the IC50 under setting [2] turned out to be 0.32 µM.

`Cc1ccc(C)c(-n2nnnc2Sc2nc([N+](=O)[O-])nn2C)c1`: the IC50 is 0.79 µM. Under setting [1], the 50% inhibitory concentration (IC50) was over 50 µM. In addition, under setting [2], the IC50 was 0.25 µM.

As for `N#Cc1ccc(C(=O)Nc2cccc(-c3cccc(CN4CCC(O)CC4)c3)c2)cc1`, the 50% inhibitory concentration (IC50) was 7.9 µM. In addition, the concentration for half-maximal inhibition (IC50) under setting [1] was 32 µM. The molecule further displayed a 50% inhibitory concentration (IC50) under setting [2] of 7.9 µM.

As for `O=C(Nc1nc(-c2ccccn2)cs1)c1ccc(S(=O)(=O)N2CCCCC2)cc1`, the IC50 is 0.63 µM. The IC50 under setting [1] came out at 2.5 µM. In addition, the 50% inhibitory concentration (IC50) under setting [2] worked out at 0.4 µM.

Take `Cc1cc(C)cc(NS(=O)(=O)c2cc(-c3cc(C)[nH]n3)ccc2C)c1`: the IC50 is 1.6 µM. Under setting [1], this molecule showed a 50% inhibitory concentration (IC50) of 32 µM. This molecule also came in with an IC50 under setting [2] of 1.3 µM.

Turning to `CC(C)Oc1cccc(N2CCC(C(=O)N3CCCN(C(C)C)CC3)CC2)c1`, the half-maximal inhibitory concentration (IC50) is 0.63 µM. For the same molecule, under setting [1], the concentration for half-maximal inhibition (IC50) is over 50 µM. Moreover, the IC50 under setting [2] amounted to 0.25 µM.

For `Cn1nccc1NC(=O)Cn1ccc(-c2ccncc2)n1`, the IC50 is > 50 µM (inactive). Further, under setting [1], the half-inhibitory concentration (IC50) is over 50 µM. For the same molecule, the half-maximal inhibitory concentration (IC50) under setting [2] is over 50 µM.

`CS(=O)(=O)NC1CCC(Oc2cc3cnccc3cc2-c2ccsc2)CC1` (centres undefined): the IC50 was 0.16 µM. Further, the half-maximal inhibitory concentration (IC50) under setting [1] is over 50 µM. In addition, the IC50 under setting [2] came to 0.1 µM.

`CN(C)CCOc1ccc(N2CCN(S(=O)(=O)c3ccc(Cl)cc3)CC2)cc1`: the half-inhibitory concentration (IC50) is 0.63 µM. Under setting [1], this molecule yielded an IC50 of over 50 µM. In addition, under setting [2], the concentration for half-maximal inhibition (IC50) was 0.5 µM.

With `Cc1cc(=O)n2nc(Oc3ccc(C#N)cc3Cl)sc2n1`, the half-inhibitory concentration (IC50) is 32 µM. The half-inhibitory concentration (IC50) under setting [1] came to 32 µM. Moreover, the half-maximal inhibitory concentration (IC50) under setting [2] turned out to be 25 µM.

`c1ccc(CNc2cccc3ccncc23)cc1`: the IC50 is 6.3 µM. The molecule further had an IC50 under setting [1] of over 50 µM. Further, under setting [2], the IC50 was 5 µM.

For the molecule `COc1ccc(CNc2cc(C3CC3)nc(-c3nccn3C)n2)cc1`, the concentration for half-maximal inhibition (IC50) is 0.79 µM. Besides, under setting [1], the IC50 is 1 µM. Under setting [2], this molecule had an IC50 of 0.63 µM.

With `O=C(Cn1cnc([N+](=O)[O-])n1)Nc1ccc(Cl)cc1C(=O)c1ccccc1`, the concentration for half-maximal inhibition (IC50) is 1.3 µM. Moreover, under setting [1], the half-maximal inhibitory concentration (IC50) is over 50 µM. The molecule further had a concentration for half-maximal inhibition (IC50) under setting [2] of 0.32 µM.

As for `COc1ccc(NS(=O)(=O)c2cc(NC(=O)c3ccc([N+](=O)[O-])s3)ccc2OC)cc1`, the half-maximal inhibitory concentration (IC50) was 0.1 µM. Under setting [1], this molecule had a half-maximal inhibitory concentration (IC50) of over 50 µM. The IC50 under setting [2] was 0.079 µM.

With `COc1ncc(-c2ccc3ncnc(N4CCOCC4)c3c2)cc1NS(C)(=O)=O`, the IC50 is 6.3 µM. Moreover, under setting [1], the IC50 came to 1.6 µM. The 50% inhibitory concentration (IC50) under setting [2] worked out at 2.5 µM.

Take `Cc1ccccc1NS(=O)(=O)c1ccc2[nH]cc(C(=O)NC3CCCC3)c(=O)c2c1`: the half-maximal inhibitory concentration (IC50) was 32 µM. This molecule also displayed a 50% inhibitory concentration (IC50) under setting [1] of 20 µM. The molecule further displayed a half-inhibitory concentration (IC50) under setting [2] of 25 µM.

What is called IC50 is the concentration needed to halve the response being measured.

These data come from PubChem BioAssay AID1159565 (GlaxoSmithKline (GSK), 2015).
